This note sets out measurements from patent US20100267712A1, “ISOINDOLINE COMPOUNDS FOR THE TREATMENT OF SPINAL MUSCULAR ATROPHY AND OTHER USES” (The United States of America, as represented by the …, priority 2007, published 2010).

The subject of this assay is SMN2-linked luciferase-reporter gene construct. Description: SMN Splice Reporter Assay (SMN2-linked luciferase reporter). It counts as cell-based. The following applies: for EC50: cervical carcinoma cell lines, SMN2 splice luciferase reporter; for Fold Increase: fold-increase of luciferase over baseline reading of transformed cells without any test compound. The source says: As previously discussed, SMN1 is the gene deleted in SMA patients; the SMN2 gene remains intact in both SMA and normal patients. Therefore, SMN2 provides a potential means of increasing SMN production in SMA patients and is, thus, a target for developing SMA treatments. SMN2 is identical to SMN1 with the exception of a single base pair change that results in reduced expression of the gene. The reduction is based on the creation of an alternatively spliced RNA that produces an unstable protein carrying a deletion of exon 7. Both full length SMN and exon 7 deleted SMN are produced by the SMN2 gene via alternative RNA splicing, but the major product is the unstable deleted form.
Cervical carcinoma cell lines were transformed with a SMN2-linked luciferase-reporter gene construct. The reporter is designed to detect shifts in the alternative splicing of SMN2 sequences. In particular, the reporter is constructed as a fusion of the alternatively spliced sequences of the SMN2 gene and the luciferase gene. Luciferase sequences are in the correct translational reading frame only when the SMN2 sequences are spliced according to the normal SMN1 mechanism (e.g., splicing to include exon 7), which allows for translation of the stable SMN protein. Compounds were tested in the assay by administering the compound to the cell line and detecting an increase in the luciferase activity. The assay is described in greater detail in Zhang et al., Gene Ther., 8: 1532-8 (2001). Compounds were administered as described in Lunn et al, Chem. & Biol, 11: 1489-1493 (2004).
The results are reported as a fold-increase over a baseline reading of transformed cells without any test compound. The EC50 value also is reported in Table 1 for some exemplary compounds of the invention.

One may read the EC50 as the concentration giving half of the maximal effect. Read a high EC50 as a less potent agent. On to `O=C1c2ccccc2CN1c1ccc(Br)cn1` [Example 112648], for which the EC50 was 0.456 µM and the “Fold Increase” value is 1.264.

In the case of `O=C1c2ccccc2CN1c1ccc(Br)nc1` [Example 112649], the response was half-maximal at 18.2 µM (EC50) and the “Fold Increase” value is on record as 1.373. The corresponding values for `CC(C)(C)OC(=O)Cc1ccc(N2Cc3ccccc3C2=O)nc1` [Example 112719] are 6.58 µM and 1.324. For `COC(=O)C1CCc2cc(N3Cc4ccccc4C3=O)ccc21` (stereo not drawn) [Example 113487], in that order: 0.143 µM and 1.259. `O=C(O)C1CCc2cc(N3Cc4ccccc4C3=O)ccc21` (stereo not drawn) [Example 113488]: the “Fold Increase” value was 1.24. As for `O=C1c2ccccc2CN1c1ccc2c(c1)CCC2` [Example 116070], the midpoint of the response, the EC50, lay at 0.067 µM and the “Fold Increase” value is listed as 1.445.

For `O=C1c2ccccc2CN1c1ccc2c(c1)OCO2` [Example 116238], the midpoint of the response, the EC50, lay at 2.45 µM and the “Fold Increase” value was determined as 1.235. Regarding `COc1ccc2c(c1)C(=O)N(c1ccc3c(c1)CCC3)C2` [Example 116241], the EC50 was determined as 0.098 µM and the “Fold Increase” value is 1.512. Turning to `COc1ccc2c(c1)C(=O)N(c1ccc3c(c1)OCO3)C2` [Example 116360], the “Fold Increase” value was determined as 1.282. Consider `O=C1c2ccccc2CN1c1ccc2c(c1)OC(F)(F)O2` [Example 116485], for which the EC50 stood at 2.24 µM and the “Fold Increase” value is 1.202. Take `COc1ccc2c(c1)C(=O)N(c1ccc3c(c1)OC(F)(F)O3)C2` [Example 116565]: a half-maximal effect (EC50) was put at 0.519 µM and the “Fold Increase” value is on record as 1.3. Consider `Cc1ccc(N2Cc3cc4c(cc3C2=O)OCCO4)nc1` [Example 118418], for which the midpoint of the response, the EC50, lay at 0.063 µM and the “Fold Increase” value is reported as 1.496. The corresponding values for `COc1ccc2c(c1)C(=O)N(c1ccc(C)cn1)C2` [Example 118553] are 0.166 µM and 1.308. Turning to `Cc1ccc(N2Cc3cc4c(cc3C2=O)OCCO4)cn1` [Example 118554], the concentration for a half-maximal effect (EC50) stood at 0.708 µM and the “Fold Increase” value turned out to be 1.364. For `COc1ccc2c(c1)C(=O)N(c1ccc3ccn(C)c3c1)C2` [Example 118561], in that order: 0.143 µM and 1.74.

In the case of `COc1ccc2c(c1)C(=O)N(c1ccc(C)nc1)C2` [Example 118735], the “Fold Increase” value is listed as 1.149.

As for `O=C1c2cc3c(cc2CN1c1ccc(Br)cn1)OCCO3` [Example 118736], the EC50 is 0.137 µM and the “Fold Increase” value is on record as 1.413. On to `COc1ccc2c(c1)C(=O)N(c1ccc(Br)cn1)C2` [Example 118737], for which the EC50 was 0.415 µM and the “Fold Increase” value is recorded as 1.358. For `O=C1c2cc3c(cc2CN1c1ccc2sccc2c1)OCCO3` [Example 118900], in that order: 0.066 µM and 1.399. Turning to `Cn1ccc2ccc(N3Cc4cc5c(cc4C3=O)OCCO5)cc21` [Example 118902], the EC50 turned out to be 0.029 µM and the “Fold Increase” value is listed as 1.774. The corresponding values for `O=C1c2cc3c(cc2CN1c1ccc2ccoc2c1)OCCO3` [Example 118903] are 0.006 µM and 1.458.

Consider `O=C1c2cc(OC(F)F)ccc2CN1c1ccc2c(c1)CCC2` [Example 119337], for which the EC50 stood at 0.157 µM and the “Fold Increase” value stood at 1.66. With `COc1ccc2c(c1)C(=O)N(c1ccc3c(c1)NC(=O)CO3)C2` [Example 119516], the “Fold Increase” value was 1.182. With `CCCn1ccc2cc(N3Cc4ccc(OC)cc4C3=O)ccc21` [Example 119517], the EC50 is 0.439 µM and the “Fold Increase” value was found to be 1.59. The corresponding values for `COc1ccc2c(c1)C(=O)N(c1ccc3sccc3c1)C2` [Example 119519] are 0.031 µM and 1.666.

Consider `CC=Cc1ccc2c(c1)C(=O)N(c1ccc3c(ccn3C)c1)C2` [Example 119520], for which a half-maximal effect (EC50) was put at 0.045 µM and the “Fold Increase” value was 1.54. For `COc1ccc2c(c1)C(=O)N(c1ccc(C(C)C)cn1)C2` [Example 119654], in that order: 0.235 µM and 1.44.

For the compound `COc1ccc2c(c1)C(=O)N(c1ccc(C(C)C)nc1)C2` [Example 119655], the EC50 was 0.491 µM and the “Fold Increase” value came to 1.372. For `COc1ccc2c(c1)C(=O)N(c1ccc3c(c1)OCC(=O)N3)C2` [Example 119656], the EC50 was 0.078 µM and the “Fold Increase” value stood at 1.375.

As to `COc1ccc2c(c1)C(=O)N(c1ccc3[nH]ccc3c1)C2` [Example 119657], the “Fold Increase” value is reported as 1.21.

In the case of `CN(C)c1ccc2c(c1)C(=O)N(c1ccc3c(c1)CCN3C)C2` [Example 119660], the “Fold Increase” value is listed as 1.074. Take `COc1cccc2c1CN(c1ccc3c(ccn3C)c1)C2=O` [Example 119865]: a half-maximal response (EC50) required 0.842 µM and the “Fold Increase” value is 1.444. The corresponding values for `COc1ccc2c(c1)C(=O)N(c1ccc3nc[nH]c3c1)C2` [Example 119866] are 0.421 µM and 1.313. The corresponding values for `CCCn1ccc2ccc(N3Cc4ccc(OC)cc4C3=O)cc21` [Example 119868] are 2.28 µM and 1.582.

On to `COc1ccc2c(c1)CN(c1ccc3ccn(C)c3c1)C2=O` [Example 119870], for which the EC50 came to 0.242 µM and the “Fold Increase” value turned out to be 1.83. With `Cn1ccc2ccc(N3Cc4ccc(Br)cc4C3=O)cc21` [Example 120117], the response was half-maximal at 0.829 µM (EC50) and the “Fold Increase” value is reported as 1.519. For `Cn1ccc2ccc(N3Cc4cc(Br)ccc4C3=O)cc21` [Example 120118], in that order: 0.453 µM and 1.893. For `Cn1ccc2cc(N3Cc4c(N)cccc4C3=O)ccc21` [Example 120120], the “Fold Increase” value came to 1.094. Regarding `COc1cccc2c1CN(c1ccc3ccn(C)c3c1)C2=O` [Example 120123], a half-maximal response (EC50) required 1.1 µM and the “Fold Increase” value amounted to 1.966. Consider `COc1cccc2c1C(=O)N(c1ccc3ccn(C)c3c1)C2` [Example 120124], for which the “Fold Increase” value was found to be 1.17. As to `COc1cccc2c1C(=O)N(c1ccc3c(ccn3C)c1)C2` [Example 120125], it took 0.54 µM to reach a half-maximal effect (EC50) and the “Fold Increase” value came out at 1.332.

Turning to `Cc1cccc2c1C(=O)N(c1ccc3c(ccn3C)c1)C2` [Example 120278], the EC50 is 0.161 µM and the “Fold Increase” value is 1.502. The corresponding values for `Cc1cccc2c1C(=O)N(c1ccc3ccn(C)c3c1)C2` [Example 120279] are 0.242 µM and 1.784.

Consider `Cn1ccc2cc(N3Cc4cccc(Br)c4C3=O)ccc21` [Example 120280], for which the EC50 is 0.455 µM and the “Fold Increase” value amounted to 1.527.

On to `Cn1ccc2ccc(N3Cc4cccc(Br)c4C3=O)cc21` [Example 120281], for which the EC50 came out at 0.397 µM and the “Fold Increase” value stood at 1.788. For `Cn1ccc2ccc(N3Cc4cccc([N+](=O)[O-])c4C3=O)cc21` [Example 120282], in that order: 0.737 µM and 1.291.

As to `COc1ccc2c(c1)C(=O)N(c1ccc3ccn(C(C)C)c3c1)C2` [Example 120283], the “Fold Increase” value was found to be 1.273. For `COCCn1ccc2ccc(N3Cc4ccc(OC)cc4C3=O)cc21` [Example 120284], it took 7.87 µM to reach a half-maximal effect (EC50) and the “Fold Increase” value came to 1.19. The corresponding values for `Cn1ccc2cc(N3Cc4ccccc4C3=O)ccc21` [Example 120287] are 0.158 µM and 1.433.

Consider `Cn1ccc2cc(N3Cc4ccc(-c5ccccc5)cc4C3=O)ccc21` [Example 120288], for which the response was half-maximal at 0.408 µM (EC50) and the “Fold Increase” value was found to be 1.364. As to `Cn1ccc2cc(N3Cc4c(Br)cccc4C3=O)ccc21` [Example 120289], a half-maximal effect (EC50) was put at 1.03 µM and the “Fold Increase” value was found to be 1.39. Regarding `Cn1ccc2ccc(N3Cc4c(Br)cccc4C3=O)cc21` [Example 120290], the midpoint of the response, the EC50, lay at 0.609 µM and the “Fold Increase” value came out at 1.386. For `COc1ccc2c(c1)C(=O)N(c1ccc3c(c1)ncn3C)C2` [Example 120291], in that order: 0.111 µM and 1.362. The corresponding values for `Cn1ccc2cc(N3Cc4cccc(N)c4C3=O)ccc21` [Example 120427] are 0.294 µM and 1.606.

With `Cn1ccc2cc(N3Cc4cccc([N+](=O)[O-])c4C3=O)ccc21` [Example 120428], the EC50 stood at 0.338 µM and the “Fold Increase” value is reported as 1.262. The corresponding values for `Cn1ccc2ccc(N3Cc4cccc(N)c4C3=O)cc21` [Example 120429] are 0.152 µM and 1.745. For `COCn1ccc2ccc(N3Cc4ccc(Br)cc4C3=O)cc21` [Example 120430], in that order: 0.306 µM and 1.374.
